Assay results as given in patent US20090298073A1, “Kidney Toxicity Biomarkers” (priority 2006, published 2009).

Tests used:
Format in all cases: in vivo, rat
[1] = test system: male rats; experiment: ELISA of urinary TFF3 in rats treated with kidney toxicants; conditions: urine
Procedure: (§1) The biomarkers of the present invention can be measured in blood or urine during testing of a novel therapeutic compound. […] ELISA antibody assays are used to evaluate changes in protein levels.
(§2) Antibodies were purchased or made and ELISA assays were performed to measure the levels of four Kidney Toxicity Biomarker proteins in urine. The proteins are TFF3; Tarnm Horsfall protein (THP); neutrophil gelatinase-associated lipocalin (NGAL) and albumin.

[2] = test system: male rats; experiment: ELISA of urinary NGAL in rats treated with kidney toxicants; conditions: urine
Procedure: as §1, §2

[3] = test system: male rats; experiment: ELISA of urinary Tamm Horsfall protein (THP) in rats treated with kidney toxicants; conditions: urine
Procedure: as §1, §2

[4] = test system: male rats; experiment: ELISA of urinary albumin in rats treated with kidney toxicants; conditions: urine
Procedure: as §1, §2

[5] = test system: male rats; experiment: Histopathologically-assessed kidney toxicity in rats
[6] = gentamicin 20 mg/Kg/Day, Day 15
[7] = gentamicin 80 mg/Kg/Day, Day 15
[8] = gentamicin 240 mg/Kg/Day, Day 3
[9] = gentamicin 240 mg/Kg/Day, Day 9
[10] = gentamicin 240 mg/Kg/Day, Day 12

Gentamicin
TFF3 ([1]; gentamicin 20 mg/Kg/Day, Day 3): 634 ng/mL | TFF3 ([1]; gentamicin 20 mg/Kg/Day, Day 9): 202 ng/mL | TFF3 [1, 6]: 265 ng/mL | TFF3 ([1]; gentamicin 80 mg/Kg/Day, Day 3): 280 ng/mL | TFF3 ([1]; gentamicin 80 mg/Kg/Day, Day 9): 121 ng/mL | TFF3 [1, 7]: 69 ng/mL | TFF3 [1, 8]: 132 ng/mL | TFF3 [1, 9]: 1.3 ng/mL | TFF3 [1, 10]: 29 ng/mL | NGAL ([2]; gentamicin 20 mg/Kg/Day, Day 3): 14 µg/mL | NGAL ([2]; gentamicin 20 mg/Kg/Day, Day 9): 15 µg/mL | NGAL [2, 6]: 15 µg/mL | NGAL ([2]; gentamicin 80 mg/Kg/Day, Day 3): 13 µg/mL | NGAL ([2]; gentamicin 80 mg/Kg/Day, Day 9): 14 µg/mL | NGAL [2, 7]: 20 µg/mL | NGAL [2, 8]: 17 µg/mL | NGAL [2, 9]: 13 µg/mL | NGAL [2, 10]: 25 µg/mL | THP ([3]; gentamicin 20 mg/Kg/Day, Day 3): 4.1 µg/mL | THP ([3]; gentamicin 20 mg/Kg/Day, Day 9): 4.5 µg/mL | THP [3, 6]: 4.4 µg/mL | THP ([3]; gentamicin 80 mg/Kg/Day, Day 3): 3.4 µg/mL | THP ([3]; gentamicin 80 mg/Kg/Day, Day 9): 3.1 µg/mL | THP [3, 7]: 3.9 µg/mL | THP [3, 8]: 3.2 µg/mL | THP [3, 9]: 1.3 µg/mL | THP [3, 10]: 1.9 µg/mL | Albumin ([4]; gentamicin 20 mg/Kg/Day, Day 3): 14 µg/mL | Albumin ([4]; gentamicin 20 mg/Kg/Day, Day 9): 7 µg/mL | Albumin [4, 6]: 13 µg/mL | Albumin ([4]; gentamicin 80 mg/Kg/Day, Day 3): 221 µg/mL | Albumin ([4]; gentamicin 80 mg/Kg/Day, Day 9): 190 µg/mL | Albumin [4, 7]: 22 µg/mL | Albumin [4, 8]: 129 µg/mL | Albumin [4, 9]: 534 µg/mL | Albumin [4, 10]: 502 µg/mL | Histopathology Score [5, 6]: <1 | Histopathology Score ([5]; gentamicin 80 mg/Kg/Day, Day 3): <1 | Histopathology Score [5, 7]: 2 | Histopathology Score [5, 8]: <1 | Histopathology Score [5, 9]: 4 | Histopathology Score [5, 10]: 5
